In patent US20230105577A1, “A TOPICAL COMPOSITION” (Conopco, Inc., d/b/a UNILEVER, priority 2020, published 2023):
Counter-ions that a name gives are not always drawn.

Tests used:
[1] = tested on: M. furfur (CBS1878); settings: for The range of concentration of the atractylenolide compound (ppm) where the ΣFIC was less than 0.9 / The range of ratio of atractylenolide compound/octopirox (w/w) where ΣFIC was less than 0.9: in combination with octopirox, 32° C.
Experimental: Method 1: ΣFIC Assay Against M. furfur.
M. furfur (CBS1878) was maintained on MD agar plate (Solution A) was cultured into 20 ml of growth medium Pityrosporum Broth (PB, Solution B). They are then incubated at 32° C. for 48 hours with shaking. Then, 1 ml of the first broth culture is transferred into 9 ml of fresh PB and incubated at 32° C. for 48 hours with shaking. The final culture should contain 2 to 6×10^6 cells/ml. This is achieved by diluting using PB to 5×10^5 cells/ml.
Octopirox® was serially diluted (2-fold) to prepare in a range of 60-1000 ppm in the growth medium. Testing atractylenolide compound (stock: 4 mg/ml) was 2-fold serially diluted in DMSO to prepare in a range of 40000-10 ppm. Binary combinations of octopirox and the testing compound were prepared in 96-well plate by mixing 10 μl of octopirox solution with 10 μl of testing compound. The solution in each well were further mixed with 180 μl of M. furfur strain suspensions in PB.
The final cell density in the testing plate is around 5*10^4 cell/ml. The final concentration of each ingredient in ppm (parts per million) after (20-fold dilution) was as follows. Each of these concentrations was tried out to determine the FIC value for (either of) Octopirox® in combination with one of the atractylenolide compound.
Multi-channel pipette was used to mix the compound and strain suspension. Thereafter the 96-well plates were incubated in an incubator. In accordance with the test protocols that were followed, M. furfur was incubated aerobically at 32° C. for 1 day. Thereafter 20 μl alamar blue (0.1%) was dispensed in each well and the procedure of incubation (as abovementioned) was repeated. Finally, the change in colour of the indicator was monitored to check for visible signs of microbial growth or inhibition of the growth. If the colour changed to red it indicated growth (of microbes) and blue indicated no growth or inhibition of growth.
The MIC is defined as the absolute lowest concentration of active that provides complete microbial growth inhibition as indicated by the blue color of alamar blue under the tested condition.
The procedure is as follows:
The parameter can be defined as follows:
After all the observations were recorded and tabulated, the Fractional Inhibition Concentration (FIC) was calculated.
This parameter is defined as follows:
ΣFIC=FIC(component1)+FIC(component2)
In this study, we have adopted a liberal approach defining any binary mixture with ΣFIC<0.9 as showing evidence of synergistic behavior.
The experiments were carried out over a concentration range of ingredients as below:

[2] = tested on: M. furfur (CBS 1878); assay: Zone of inhibition (ZOI) assay; type: cell-based, Malassezia furfur; settings: 0.1% OCT, 10 μL on 6 mm filter paper, 32° C., 2 days
Experimental: Method 2: Zone Off Inhibition (ZOI) Assay
Atractylodes macrocephala (AM) root water extract (purchased from Huzhou Liaoyuan, China) was prepared at concentration of 0.75%, and 1.5% in 50% water/DMSO. Octopirox (OCT) was prepared at concentration of 0.1% and 0.2% in DMSO. Prepare Malassezia growth agar plates, and then spread 200 μL M. furfur (10^6 CFU) (CBS 1878) on to the agar. Several sterile filter papers (diameter=6 mm) were placed on the agar plate. 10 μL of compound solutions were added on the filter paper. The plates were Incubate at 32° C. for 2 days. Clear growth inhibition zone was recorded.
Synergistic antimicrobial activity:Inhibition distance for compound1+compound2combination>Inhibition distance for compound1 alone+Inhibition distance for compound2 alone

Molecule | Synergistic antimicrobial activity in combination with Octopirox® (ΣFIC assay) ([1]; binary combination with Octopirox® 0-50 ppm) | The range of concentration of the atractylenolide compound (ppm) where the ΣFIC was less than 0.9 [1] | The range of ratio of atractylenolide compound/octopirox (w/w) where ΣFIC was less than 0.9 [1] | Inhibition distance (mm) = (Inhibition zone diameter − filter paper diameter)/2 ([2]; 0.75% AM) | Inhibition distance (mm) = (Inhibition zone diameter − filter paper diameter)/2 ([2]; 1.5% AM)
zinc pyrithione [ZPTO, reference compound] | cannot interact synergistically |  |  |  | 
C=C1CCC[C@]2(C)C[C@@H]3OC(=O)C(C)=C3C[C@@H]12 [Atractylenolide II, atractylenolide II] |  | 31.25-1000 ppm | 5-2560 w/w |  | 
C=C1CCC[C@]2(C)C=C3OC(=O)C(C)=C3C[C@@H]12 [Atractylenolide I, atractylenolide I] |  | 31.25-500 ppm | 5-1280 w/w |  | 
Cc1cc(CC(C)CC(C)(C)C)n(O)c(=O)c1 (stereo not shown) [OCT, 1-hydroxy-4-methyl-6-(2,4,4-trimethylpentyl)-2(1H) pyridinone monoethanolamine salt] |  |  |  | 2.7 mm | 2.7 mm
